Measured values from the NIST ThermoML archive (doi:10.1021/je900468u).

Assays:
[1] = xn = mol fraction of the nth substance listed; conditions: 101 kPa, Liquid; for speed of sound: Pulse-echo method
[2] = refractive index (Na D-line) (dimensionless); xn = mol fraction of the nth substance listed; conditions: 101 kPa, Liquid, Standard Abbe refractometry
[3] = 101 kPa, Liquid; for speed of sound: Pulse-echo method
[4] = refractive index (Na D-line) (dimensionless); conditions: 101.33 kPa, Liquid, Standard Abbe refractometry

CC1CCCCC1 [methylcyclohexane] + c1ccccc1
Conditions	mass density, [1] [kg/m3]	refractive index, [2]	speed of sound, [1] [m/s]
283.15 K, x1 = 0.0504	880.6	1.50135	1359
283.15 K, x1 = 0.099	872.4	1.49548	1350
283.15 K, x1 = 0.1998	856.9	1.48438	1333
283.15 K, x1 = 0.2978	843.4	1.47501	1320
283.15 K, x1 = 0.3991	830.7	1.46578	1308
283.15 K, x1 = 0.4993	819.5	1.45783	1299
283.15 K, x1 = 0.598	809.6	1.45078	1293
283.15 K, x1 = 0.6991	800.5	1.44435	1288
283.15 K, x1 = 0.7981	792.4	1.43862	1284
283.15 K, x1 = 0.8961	784.9	1.4333	1282
283.15 K, x1 = 0.9523	781	1.43058	1282
283.15 K, x1 = 1	777.9	1.42833	1281
298.15 K, x1 = 0.0504	865	1.49162	1289
298.15 K, x1 = 0.099	857.1	1.48594	1280
298.15 K, x1 = 0.1998	841.9	1.47509	1263
298.15 K, x1 = 0.2978	828.8	1.46597	1250
298.15 K, x1 = 0.3991	816.5	1.45706	1240
298.15 K, x1 = 0.4993	805.7	1.44934	1231
298.15 K, x1 = 0.598	796	1.44247	1225
298.15 K, x1 = 0.6991	787.2	1.43623	1220
298.15 K, x1 = 0.7981	779.3	1.43061	1217
298.15 K, x1 = 0.8961	772	1.42549	1216
298.15 K, x1 = 0.9523	768.2	1.42279	1215
298.15 K, x1 = 1	765.1	1.42062	1215

Cc1ccccc1 [toluene]
Conditions	mass density, [3] [kg/m3]	refractive index, [4]	speed of sound, [3] [m/s]
283.15 K	876.1	1.50278	1371
298.15 K	862.2	1.49399	1305

Cc1ccccc1 [toluene] + C1CCCCC1
x2 = 0
Conditions	mass density, [1] [kg/m3]	refractive index, [2]	speed of sound, [1] [m/s]
283.15 K	876.1	1.50278	1371
298.15 K	862.2	1.49399	1305

Cc1ccccc1 [toluene] + C1CCCCCCC1
298.15 K, x2 = 0
Conditions	mass density [kg/m3]	refractive index	speed of sound [m/s]
[1]	862.2	–	1305
[2]	–	1.49399	–

Cc1ccccc1 [toluene] + CC1CCCCC1
x2 = 0
Conditions	mass density, [1] [kg/m3]	refractive index, [2]	speed of sound, [1] [m/s]
283.15 K	876.1	1.50278	1371
298.15 K	862.2	1.49399	1305
